Eleven molecules from patent publication US9682976B2, “Protein kinase C inhibitors and uses thereof” (Rigel Pharmaceuticals, Inc., priority 2012, dated 2017) can be followed below.

The assay relates to PKC mediated IL-2 production. Briefly: IL-2 ELISA, human primary T cell, anti CD3+CD28+. Format: cell-based. The note with it: Homo sapiens, T-cell, 24 h, human primary T cells stimulated with αCD3 and αCD28, 24 hours. In short, it runs like this:
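IL-2 was quantified by ELISA in 24 h supernatants from primary human T cells given a 1 h compound pre-treatment at 37° C. These cells had been expanded from blood mononuclear cells on αCD3/αCD28 with IL-2, and the IL-2 was removed by washing. Stimulation used plate-bound αCD3 ([…]) plus αCD28 (5 μg/ml); the counter assay used PMA (0.5 ng/ml) with ionomycin (0.1 uM) instead.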
(ELISA stands for enzyme-linked immunosorbent assay.)

Where only a bound is given, the exact number is not on record here.

As to `CC1(C)C[C@H](Nc2nc(Nc3cc(-n4cnnn4)c(C4CC4)cc3F)ncc2Cl)C[C@@H]2CCCN21` [Compound 146, 5-chloro-N2-(4-cyclopropyl-2-fluoro-5-(1H-tetrazol-1-yl)phenyl)-N4-((7R,8aS)-5,5-dimethyloctahydroindolizin-7-yl)pyrimidine-2,4-diamine], the EC50 (commonly the concentration at which the effect is half-maximal) is < 100 nM.

Take `Cc1ccc(Nc2ncc(Cl)c(N[C@@H]3C[C@@H]4CCCN4C(C)(C)C3)n2)cc1-n1cnnn1` [Compound 147, 5-chloro-N4-((7R,8aS)-5,5-dimethyloctahydroindolizin-7-yl)-N2-(4-methyl-3-(1H-tetrazol-1-yl)phenyl)pyrimidine-2,4-diamine]: the EC50 was < 100 nM.

`Cn1nnn(-c2cc(Nc3ncc(Cl)c(N[C@@H]4C[C@@H]5CCCN5C(C)(C)C4)n3)c(F)cc2C2CC2)c1=O` [Compound 148, 1-(5-((5-chloro-4-(((7R,8aS)-5,5-dimethyloctahydroindolizin-7-yl)amino)pyrimidin-2-yl)amino)-2-cyclopropyl-4-fluorophenyl)-4-methyl-1,4-dihydro-5H-tetrazol-5-one]: the EC50 is < 100 nM.

As to `Cc1nnnn1-c1cc(Nc2ncc(Cl)c(N[C@@H]3C[C@@H]4CCCN4C(C)(C)C3)n2)ccc1F` [Compound 149, 5-chloro-N4-((7R,8aS)-5,5-dimethyloctahydroindolizin-7-yl)-N2-(4-fluoro-3-(5-methyl-1H-tetrazol-1-yl)phenyl)pyrimidine-2,4-diamine], the EC50 was < 100 nM.

For the molecule `Cc1nnnn1-c1ccc(F)c(Nc2ncc(Cl)c(N[C@@H]3C[C@@H]4CCCN4C(C)(C)C3)n2)c1` [Compound 150, 5-chloro-N4-((7R,8aS)-5,5-dimethyloctahydroindolizin-7-yl)-N2-(2-fluoro-5-(5-methyl-1H-tetrazol-1-yl)phenyl)pyrimidine-2,4-diamine], the EC50 was < 100 nM.

Turning to `COc1ccc(Nc2ncc(Cl)c(N[C@@H]3C[C@@H]4CCCN4C(C)(C)C3)n2)cc1-n1nnnc1C` [Compound 151, 5-chloro-N4-((7R,8aS)-5,5-dimethyloctahydroindolizin-7-yl)-N2-(4-methoxy-3-(5-methyl-1H-tetrazol-1-yl)phenyl)pyrimidine-2,4-diamine], the EC50 was < 100 nM.

Take `COc1cc(Nc2ncc(Cl)c(N[C@@H]3C[C@@H]4CCCN4C(C)(C)C3)n2)cc(-n2nnnc2C)c1` [Compound 152, 5-chloro-N4-((7R,8aS)-5,5-dimethyloctahydroindolizin-7-yl)-N2-(3-methoxy-5-(5-methyl-1H-tetrazol-1-yl)phenyl)pyrimidine-2,4-diamine]: the EC50 is < 100 nM.

With `CC1(C)C[C@H](Nc2nc(Nc3cccc(C#N)c3)ncc2Cl)C[C@@H]2CCCN21` [Compound 153, 3-((5-chloro-4-(((7R,8aS)-5,5-dimethyloctahydroindolizin-7-yl)amino)pyrimidin-2-yl)amino)benzonitrile], the EC50 fell in the range of 100 to 500 nM.

Turning to `Cc1ccc(Nc2ncc(Cl)c(N[C@@H]3C[C@@H]4CCCN4C(C)(C)C3)n2)cc1C#N` [Compound 154, 5-((5-chloro-4-(((7R,8aS)-5,5-dimethyloctahydroindolizin-7-yl)amino)pyrimidin-2-yl)amino)-2-methylbenzonitrile], the EC50 is < 100 nM.

For `CC1(C)C[C@H](Nc2nc(Nc3ccc(C4CC4)c(C#N)c3)ncc2Cl)C[C@@H]2CCCN21` [Compound 155, 5-((5-chloro-4-(((7R,8aS)-5,5-dimethyloctahydroindolizin-7-yl)amino)pyrimidin-2-yl)amino)-2-cyclopropylbenzonitrile], the EC50 was < 100 nM.

Regarding `COc1cc(Nc2ncc(F)c(N[C@@H]3C[C@@H]4CCCN4C(C)(C)C3)n2)cc(OC)c1OC` [Compound 156, N4-((7R,8aS)-5,5-dimethyloctahydroindolizin-7-yl)-5-fluoro-N2-(3,4,5-trimethoxyphenyl)pyrimidine-2,4-diamine], the EC50 was in the range of 1000 to 10000 nM.
